The subject of one test is bladder smooth muscle. The test is described as follows: Test 3: contractive force of extracted bladder smooth muscle after ischemia-reperfusion of abdominal aorta. It is filed as in vivo, rat. The settings on record: for Contractive force (contraction by carbachol) / Contractive force (contraction by concentrated potassium chloride): 30 minutes ischemia, 30 minutes reperfusion; for Contractive force (contraction by concentrated potassium chloride): potassium chloride 100 mM. The method, then:
Test 3 ([…]) Compound 4 obtained in Preparation Example 4 was administered intraperitoneally to a rat immediately before the ischemia at a dose of 0.5, 2.0 and 8.0 mg/kg, and the rat was anesthetized by use of pentobarbital. Following 30 minutes ischemia of abdominal aorta of the rats, the abdominal aorta was subjected to perfusion for 30 minutes. Each bladder was then extracted and fixed in organbath filled with Krebs-Henseleit nutritive solution. By the use of TB-612T transducer (product of Nihonkoden), contractive force of bladder smooth muscle due to carbachol or concentrated potassium chloride (100 mM) was measured.

In test [1] the test system is STZ-administered rat. In words: Test 1: maximum quantity excreted by single urination, metabolic cage, 24 hours. The format is in vivo. The settings on record: STZ 65 mg/kg i.p. rat; Compound 4 i.p. 8 mg/kg daily for 8 weeks; mean ± S.E.; p < 0.05 relative to STZ-administered group. How it is done:
Test 1 (Maximum Quantity Excreted by Single Urination)
To a rat, 65 mg/kg of streptozotocin (STZ) was administered intraperitoneally. After intraperitoneal administration of Compound 4, which had been obtained in Preparation Example 4, at a daily dose of 8 mg/kg for 8 weeks from two days after administration of STZ, urination pattern such as urination frequency and urination amount was recorded for 24 hours at 2.5-min intervals by using a metabolic cage.

Test [2] has as its system STZ-administered rat. The test is described as follows: Test 2: bladder capacity and urination efficiency from intravesical pressure under anesthesia. The settings on record: Compound 4 i.p. 8 mg/kg daily for 8 weeks, mean ± S.E., p < 0.05 relative to STZ-administered group. The format is in vivo. How it is done:
Test 2 (Bladder Capacity and Urination Efficiency)
In a similar manner to Test 1, Compound 4 obtained in Preparation Example 4 was administered intraperitoneally to a rat at a daily dose of 8 mg/kg for 8 weeks two days after administration of STZ. The intravesical pressure was measured under anesthesia. From the results, the bladder capacity and urination efficiency were determined.
Urination efficiency (%)=100×excreted amount/bladder capacity

The mark [3] stands for this setting: 0.5 mg/kg i.p. immediately before ischemia.
Setting [4] is: 2.0 mg/kg i.p. immediately before ischemia.
[5] abbreviates: 8.0 mg/kg i.p. immediately before ischemia.

From patent publication US6906107B2, “Use of cyclohexenone derivatives for the manufacture of a medicament in the treatment of dysuria” (Meiji Dairies Corporation, priority 2001, dated 2005) come the findings set out here.

Consider `CC1=C(CCCCCCCCCCCCCCCO)C(C)(C)CCC1=O` [Compound 4, 3-(15-Hydroxypentadecyl)-2,4,4-trimethyl-2-cyclohexen-1-one], for which the “Contractive force (contraction by carbachol)” value in the test on bladder smooth muscle (setting [3]) turned out to be 4.5 ± 0.5 g/mm^2; in the test with bladder smooth muscle (setting [4]), 5.4 ± 0.4 g/mm^2; in the test with bladder smooth muscle (setting [5]), 6.5 ± 0.5 g/mm^2. In addition, the results for the “Contractive force (contraction by concentrated potassium chloride)” value with bladder smooth muscle (setting [3]), with bladder smooth muscle (setting [4]) and in the test with bladder smooth muscle (setting [5]) were 3.0 ± 0.4 g/mm^2, 3.9 ± 0.3 g/mm^2 and 3.9 ± 0.4 g/mm^2, respectively. Also, the “Effect on contraction of bladder smooth muscle (in words)” value in the test with bladder smooth muscle (0.5, 2.0 and 8.0 mg/kg i.p., summary of Tables 3 and 4) is recorded as “enhances contraction of bladder smooth muscle depending on its dose”. The “Maximum amount excreted by single urination” value in the test on STZ-administered rat [1] was 3.71 ± 0.26 mL. The same molecule showed a Urination efficiency in the test with STZ-administered rat [2] (100×excreted amount/bladder capacity) of 75.0±6.1%. In addition, in the test on STZ-administered rat [2] (urination-inducing bladder capacity), the Bladder capacity was determined as 0.54 ± 0.07 mL.
